Experimental findings from patent publication US11993599B2, “Therapeutic compounds” (Genentech, Inc., priority 2021, dated 2024) are described below.

The target in one assay is T1, BRG1 (Homo sapiens, UniProt P51532).
T1 construct: either BRM primary antibody (Cell signaling Cat #11966) or BRG primary antibody (Abcam, ab 110641); endogenous in cells; host or cells: SW1573
The assay can be described thus: Immunofluorescence assay for BRG1 degradation in SW1573 cells. In kind it is cell-based. The following applies: 20 hours incubation; for DC50: immunofluorescence mean nuclear signal, read-out: BRG1 IF Degradation IC50; for Dmax: SW1573, 20 h, normalized to a known degrader control, read-out: BRG1 IF Degradation Sinf (%). The method, boiled down:
(§1)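 Imaging-based readout in SW1573: 20 h dosing, formaldehyde fixation, antibody staining for either remodeler, nuclear intensity per cell quantified. Values normalized to control degrader; floating-maximum fit.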

The target in the next assay is BRM (Homo sapiens, UniProt P51531). The assay can be described thus: Immunofluorescence assay for BRM degradation in SW1573 cells. The assay is classed as cell-based. Also on record: treated overnight at 4° C. with either BRM primary antibody (Cell signaling Cat #11966) or BRG primary antibody; endogenous in cells; host or cells: SW1573. The conditions noted are these: 20 hours incubation; for DC50: immunofluorescence mean nuclear signal, read-out: BRM IF Degradation IC50; for BRM IF Degradation Sinf (%): normalized to a known degrader control. The method, boiled down: as §1
Chain of BRM (P51531 whole entry): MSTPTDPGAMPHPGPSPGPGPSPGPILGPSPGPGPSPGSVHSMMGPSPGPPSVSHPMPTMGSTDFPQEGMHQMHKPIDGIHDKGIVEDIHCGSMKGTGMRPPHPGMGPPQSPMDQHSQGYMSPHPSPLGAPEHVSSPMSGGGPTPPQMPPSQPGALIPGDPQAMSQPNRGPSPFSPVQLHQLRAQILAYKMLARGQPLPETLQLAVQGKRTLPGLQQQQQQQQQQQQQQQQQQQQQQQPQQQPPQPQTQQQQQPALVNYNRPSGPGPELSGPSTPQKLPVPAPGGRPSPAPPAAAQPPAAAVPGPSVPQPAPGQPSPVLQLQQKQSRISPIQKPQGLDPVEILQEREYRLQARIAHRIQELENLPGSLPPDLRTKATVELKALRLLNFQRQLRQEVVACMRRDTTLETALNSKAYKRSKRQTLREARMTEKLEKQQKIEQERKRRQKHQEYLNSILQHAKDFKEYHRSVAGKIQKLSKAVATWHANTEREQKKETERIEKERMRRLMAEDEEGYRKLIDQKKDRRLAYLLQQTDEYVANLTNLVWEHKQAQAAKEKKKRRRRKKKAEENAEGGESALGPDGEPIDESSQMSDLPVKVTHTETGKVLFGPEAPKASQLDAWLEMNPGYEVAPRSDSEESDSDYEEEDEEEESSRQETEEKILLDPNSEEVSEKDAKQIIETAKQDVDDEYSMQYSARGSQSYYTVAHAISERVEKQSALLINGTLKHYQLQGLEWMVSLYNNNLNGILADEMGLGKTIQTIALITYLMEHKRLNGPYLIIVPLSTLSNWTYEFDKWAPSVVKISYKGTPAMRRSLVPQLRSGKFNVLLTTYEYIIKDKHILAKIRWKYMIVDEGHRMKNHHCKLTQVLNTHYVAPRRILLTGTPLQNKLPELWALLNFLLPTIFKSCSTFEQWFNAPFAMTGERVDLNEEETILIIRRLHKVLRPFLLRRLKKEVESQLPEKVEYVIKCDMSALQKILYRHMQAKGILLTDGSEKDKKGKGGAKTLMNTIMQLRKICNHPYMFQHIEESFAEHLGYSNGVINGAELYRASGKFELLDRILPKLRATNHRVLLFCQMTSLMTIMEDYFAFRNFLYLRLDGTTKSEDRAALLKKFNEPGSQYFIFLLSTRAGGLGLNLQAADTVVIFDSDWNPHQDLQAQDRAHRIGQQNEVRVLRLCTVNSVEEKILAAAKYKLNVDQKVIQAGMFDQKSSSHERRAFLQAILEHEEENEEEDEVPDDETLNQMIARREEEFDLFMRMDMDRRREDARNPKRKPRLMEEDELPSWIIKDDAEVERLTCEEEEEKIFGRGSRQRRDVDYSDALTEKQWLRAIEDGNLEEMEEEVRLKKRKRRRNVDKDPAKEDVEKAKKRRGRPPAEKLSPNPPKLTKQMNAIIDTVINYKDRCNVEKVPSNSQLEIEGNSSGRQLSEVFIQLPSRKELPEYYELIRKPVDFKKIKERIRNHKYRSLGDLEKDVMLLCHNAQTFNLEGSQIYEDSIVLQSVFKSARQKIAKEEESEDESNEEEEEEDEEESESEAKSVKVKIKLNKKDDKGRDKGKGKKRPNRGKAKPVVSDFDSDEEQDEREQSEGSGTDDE

T1 sequence (P51532 whole entry): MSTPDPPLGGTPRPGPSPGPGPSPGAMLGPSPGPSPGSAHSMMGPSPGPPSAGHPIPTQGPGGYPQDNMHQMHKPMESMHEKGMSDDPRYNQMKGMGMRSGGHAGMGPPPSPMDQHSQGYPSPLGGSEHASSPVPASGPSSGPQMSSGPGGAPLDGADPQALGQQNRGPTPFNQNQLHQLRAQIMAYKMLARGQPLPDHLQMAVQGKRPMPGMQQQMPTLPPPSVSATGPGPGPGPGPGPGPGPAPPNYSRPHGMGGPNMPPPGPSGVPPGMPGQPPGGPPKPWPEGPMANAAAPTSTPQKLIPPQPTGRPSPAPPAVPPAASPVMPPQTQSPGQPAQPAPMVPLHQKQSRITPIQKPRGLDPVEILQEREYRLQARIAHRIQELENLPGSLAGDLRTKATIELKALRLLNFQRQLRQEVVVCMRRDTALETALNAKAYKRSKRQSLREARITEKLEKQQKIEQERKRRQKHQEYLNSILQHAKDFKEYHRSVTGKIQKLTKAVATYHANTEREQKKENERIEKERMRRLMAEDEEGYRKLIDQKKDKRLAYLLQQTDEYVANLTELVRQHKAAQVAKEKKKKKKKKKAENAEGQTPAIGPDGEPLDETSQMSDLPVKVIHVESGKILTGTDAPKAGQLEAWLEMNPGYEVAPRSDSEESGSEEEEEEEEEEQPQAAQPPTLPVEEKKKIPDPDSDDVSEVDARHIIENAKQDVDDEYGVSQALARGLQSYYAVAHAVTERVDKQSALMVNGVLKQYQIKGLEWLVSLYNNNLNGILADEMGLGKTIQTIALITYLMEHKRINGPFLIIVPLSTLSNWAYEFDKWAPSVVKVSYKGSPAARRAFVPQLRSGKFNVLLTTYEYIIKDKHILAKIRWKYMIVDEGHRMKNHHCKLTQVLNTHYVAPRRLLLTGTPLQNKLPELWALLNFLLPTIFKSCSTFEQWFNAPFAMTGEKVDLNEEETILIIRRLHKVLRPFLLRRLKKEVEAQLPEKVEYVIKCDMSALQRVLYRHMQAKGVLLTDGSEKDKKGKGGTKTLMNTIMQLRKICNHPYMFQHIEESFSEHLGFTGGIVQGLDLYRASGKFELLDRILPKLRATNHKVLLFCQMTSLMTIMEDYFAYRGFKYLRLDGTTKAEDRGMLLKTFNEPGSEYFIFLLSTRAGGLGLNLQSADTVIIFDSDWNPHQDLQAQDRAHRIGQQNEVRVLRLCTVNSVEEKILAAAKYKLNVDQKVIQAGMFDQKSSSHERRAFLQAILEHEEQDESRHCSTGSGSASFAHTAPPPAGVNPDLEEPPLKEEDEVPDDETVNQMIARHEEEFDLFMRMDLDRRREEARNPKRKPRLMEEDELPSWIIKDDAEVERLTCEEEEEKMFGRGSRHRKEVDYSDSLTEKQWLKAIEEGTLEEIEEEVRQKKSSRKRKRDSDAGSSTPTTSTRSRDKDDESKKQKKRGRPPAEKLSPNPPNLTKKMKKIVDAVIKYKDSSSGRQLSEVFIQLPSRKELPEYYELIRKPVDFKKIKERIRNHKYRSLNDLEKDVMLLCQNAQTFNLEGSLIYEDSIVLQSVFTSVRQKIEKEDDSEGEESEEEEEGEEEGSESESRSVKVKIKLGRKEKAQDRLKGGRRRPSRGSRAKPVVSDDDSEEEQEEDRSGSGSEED

As for `Nc1nnc(-c2ccccc2O)cc1N1CC2CCC(C1)N2c1ccnc(C#CCN2CCCOCC23CC3)c1` [Compound 110, 2-[6-amino-5-[8-[2-[3-(8-oxa-4-azaspiro[2.6]nonan-4-yl)prop-1-ynyl]-4-pyridyl]-3,8-diazabicyclo[3.2.1]octan-3-yl]pyridazin-3-yl]phenol], the DC50 at BRG1 is greater than 100 nM. Moreover, on BRM, the DC50 was less than 10 nM and the “BRM IF Degradation Sinf (%)” value is “E (E indicates −30%-−70%)”.

Take `Nc1nnc(-c2ccccc2O)cc1N1CC2CCC(C1)N2c1ccnc(C#CCN2C3CCCC2COC3)c1` [Compound 111, 2-[6-amino-5-[8-[2-[3-(3-oxa-9-azabicyclo[3.3.1]nonan-9-yl)prop-1-ynyl]-4-pyridyl]-3,8-diazabicyclo[3.2.1]octan-3-yl]pyridazin-3-yl]phenol]: at BRG1, the DC50 was less than 10 nM and the Dmax was 0 to 30%. Besides, on BRM, the DC50 is less than 10 nM and the “BRM IF Degradation Sinf (%)” value is recorded as “E (E indicates −30%-−70%)”.

In the case of `Nc1nnc(-c2ccccc2O)cc1N1CC2CCC(C1)N2c1ccnc(C#CCN2CCOC(F)(F)C2)c1` [Compound 112, 2-[6-amino-5-[8-[2-[3-(2,2-difluoromorpholin-4-yl)prop-1-ynyl]-4-pyridyl]-3,8-diazabicyclo[3.2.1]octan-3-yl]pyridazin-3-yl]phenol], on BRG1, the DC50 lay within 10 to 100 nM and the Dmax fell in the range of 0 to 30%. For the same compound, on BRM, the DC50 was less than 10 nM and the “BRM IF Degradation Sinf (%)” value is “E (E indicates −30%-−70%)”.

As for `Nc1nnc(-c2ccccc2O)cc1N1CC2CCC(C1)N2c1ccnc(C#CCN2C[C@H]3CCO[C@H]3C2)c1` [Compound 113, 2-[5-[8-[2-[3-[(3aR,6aR)-2,3,3a,4,6,6a-hexahydrofuro[2,3-c]pyrrol-5-yl]prop-1-ynyl]-4-pyridyl]-3,8-diazabicyclo[3.2.1]octan-3-yl]-6-amino-pyridazin-3-yl]phenol], at BRG1, the DC50 was less than 10 nM and the Dmax was in the range of 0 to 30%. Further, on BRM, the DC50 lay in the range of 10 to 100 nM and the “BRM IF Degradation Sinf (%)” value is recorded as “E (E indicates −30%-−70%)”.

With `Nc1nnc(-c2ccccc2O)cc1N1CC2CCC(C1)N2c1ccnc(C#CCN2CCOC(CF)C2)c1` (centres unmarked) [Compound 114, 2-[6-amino-5-[8-[2-[3-[2-(fluoromethyl)morpholin-4-yl]prop-1-ynyl]-4-pyridyl]-3,8-diazabicyclo[3.2.1]octan-3-yl]pyridazin-3-yl]phenol], the DC50 on BRG1 was greater than 100 nM. At BRM, the DC50 fell in the range of 10 to 100 nM and the “BRM IF Degradation Sinf (%)” value was “E (E indicates −30%-−70%)”.

As for `Nc1nnc(-c2ccccc2O)cc1N1CC2CCC(C1)N2c1ccnc(C#CCN2C[C@H]3CC[C@@H]2C3)c1` [Compound 115, 2-[6-amino-5-[8-[2-[3-[(1R,4S)-2-azabicyclo[2.2.1]heptan-2-yl]prop-1-ynyl]-4-pyridyl]-3,8-diazabicyclo[3.2.1]octan-3-yl]pyridazin-3-yl]phenol], at BRG1, the DC50 is less than 10 nM and the Dmax fell in the range of 30 to 70%. At BRM, the DC50 was less than 10 nM and the “BRM IF Degradation Sinf (%)” value is reported as “E (E indicates −30%-−70%)”.

Regarding `Nc1nnc(-c2ccccc2O)cc1N1CC2CCC(C1)N2c1ccnc(C#CCN2CC3CC2(CO)C3)c1` [Compound 116, 2-[6-amino-5-[8-[2-[3-[1-(hydroxymethyl)-2-azabicyclo[2.1.1]hexan-2-yl]prop-1-ynyl]-4-pyridyl]-3,8-diazabicyclo[3.2.1]octan-3-yl]pyridazin-3-yl]phenol], on BRG1, the DC50 was less than 10 nM and the Dmax is 0 to 30%. Also, at BRM, the DC50 was in the range of 10 to 100 nM and the “BRM IF Degradation Sinf (%)” value is reported as “E (E indicates −30%-−70%)”.

Regarding `Nc1nnc(-c2ccccc2O)cc1N1CC2CCC(C1)N2c1ccnc(C#CCN2CC[C@@]3(O)C[C@H]3C2)c1` [Compound 117, (1S,6S)-3-[3-[4-[3-[3-amino-6-(2-hydroxyphenyl)pyridazin-4-yl]-3,8-diazabicyclo[3.2.1]octan-8-yl]-2-pyridyl]prop-2-ynyl]-3-azabicyclo[4.1.0]heptan-6-ol], on BRG1, the DC50 was 10 to 100 nM and the Dmax lay within 0 to 30%. In addition, on BRM, the DC50 was 10 to 100 nM and the “BRM IF Degradation Sinf (%)” value is “E (E indicates −30%-−70%)”.

For `Nc1nnc(-c2ccccc2O)cc1N1CC2CCC(C1)N2c1ccnc(C#CCN2C[C@@H]3[C@@H](CO)[C@@H]3C2)c1` [Compound 118, 2-[6-amino-5-[8-[2-[3-[(1S,5R)-6-(hydroxymethyl)-3-azabicyclo[3.1.0]hexan-3-yl]prop-1-ynyl]-4-pyridyl]-3,8-diazabicyclo[3.2.1]octan-3-yl]pyridazin-3-yl]phenol], at BRG1, the DC50 is less than 10 nM and the Dmax fell in the range of 30 to 70%. At BRM, the DC50 lay within 10 to 100 nM and the “BRM IF Degradation Sinf (%)” value is given as “E (E indicates −30%-−70%)”.

`CC1(C)CN(CC#Cc2cc(N3C4CCC3CN(c3cc(-c5ccccc5O)nnc3N)C4)ccn2)CCO1` [Compound 119, 2-[6-amino-5-[8-[2-[3-(2,2-dimethylmorpholin-4-yl)prop-1-ynyl]-4-pyridyl]-3,8-diazabicyclo[3.2.1]octan-3-yl]pyridazin-3-yl]phenol]: the DC50 on BRG1 was greater than 100 nM. Moreover, on BRM, the DC50 was greater than 100 nM and the “BRM IF Degradation Sinf (%)” value is recorded as “E (E indicates −30%-−70%)”.

For the compound `N#CC1CCCN(CC#Cc2cc(N3C4CCC3CN(c3cc(-c5ccccc5O)nnc3N)C4)ccn2)C1` (centres unmarked) [Compound 120, 1-[3-[4-[3-[3-amino-6-(2-hydroxyphenyl)pyridazin-4-yl]-3,8-diazabicyclo[3.2.1]octan-8-yl]-2-pyridyl]prop-2-ynyl]piperidine-3-carbonitrile], on BRG1, the DC50 lay within 10 to 100 nM and the Dmax fell in the range of 30 to 70%. For the same compound, at BRM, the DC50 was 10 to 100 nM and the “BRM IF Degradation Sinf (%)” value was “E (E indicates −30%-−70%)”.

`Nc1nnc(-c2ccccc2O)cc1N1CC2CCC(C1)N2c1ccnc(C#CCN2C3CCC2(CO)CC3)c1` [Compound 121, 2-[6-amino-5-[8-[2-[3-[1-(hydroxymethyl)-7-azabicyclo[2.2.1]heptan-7-yl]prop-1-ynyl]-4-pyridyl]-3,8-diazabicyclo[3.2.1]octan-3-yl]pyridazin-3-yl]phenol]: on BRG1, the DC50 is greater than 100 nM and the Dmax fell in the range of 30 to 70%. Further, at BRM, the DC50 was less than 10 nM and the “BRM IF Degradation Sinf (%)” value is reported as “E (E indicates −30%-−70%)”.

Regarding `CNC(=O)[C@H]1CCN(CC#Cc2cc(N3C4CCC3CN(c3cc(-c5ccccc5O)nnc3N)C4)ccn2)C1` [Compound 122, (3S)-1-[3-[4-[3-[3-amino-6-(2-hydroxyphenyl)pyridazin-4-yl]-3,8-diazabicyclo[3.2.1]octan-8-yl]-2-pyridyl]prop-2-ynyl]-N-methyl-pyrrolidine-3-carboxamide], at BRG1, the DC50 lay within 10 to 100 nM and the Dmax is 30 to 70%. Moreover, at BRM, the DC50 was in the range of 10 to 100 nM and the “BRM IF Degradation Sinf (%)” value is listed as “F (F indicates −71%-−120%)”.

As for `Nc1nnc(-c2ccccc2O)cc1N1CC2CCC(C1)N2c1ccnc(C#CCN2C[C@@H]3C[C@H]2[C@H]2C[C@@H]32)c1` [Compound 123, 2-[6-amino-5-[8-[2-[3-[(1R,2S,4S,5S)-6-azatricyclo[3.2.1.02,4]octan-6-yl]prop-1-ynyl]-4-pyridyl]-3,8-diazabicyclo[3.2.1]octan-3-yl]pyridazin-3-yl]phenol], on BRG1, the DC50 was less than 10 nM and the Dmax fell in the range of 30 to 70%. Also, at BRM, the DC50 is less than 10 nM and the “BRM IF Degradation Sinf (%)” value was “E (E indicates −30%-−70%)”.

Turning to `Nc1nnc(-c2ccccc2O)cc1N1CC2CCC(C1)N2c1ccnc(C#CCN2CCOC3(CC3)C2)c1` [Compound 124, 2-[6-amino-5-[8-[2-[3-(4-oxa-7-azaspiro[2.5]octan-7-yl)prop-1-ynyl]-4-pyridyl]-3,8-diazabicyclo[3.2.1]octan-3-yl]pyridazin-3-yl]phenol], the DC50 at BRG1 is greater than 100 nM; at BRM, less than 10 nM. Besides, the “BRM IF Degradation Sinf (%)” value at BRM was “E (E indicates −30%-−70%)”.

With `Nc1nnc(-c2ccccc2O)cc1N1CC2CCC(C1)N2c1ccnc(C#CCN2CC3CCCC2C3)c1` (centres unmarked) [Compound 125, 2-[6-amino-5-[8-[2-[3-(6-azabicyclo[3.2.1]octan-6-yl)prop-1-ynyl]-4-pyridyl]-3,8-diazabicyclo[3.2.1]octan-3-yl]pyridazin-3-yl]phenol], at BRG1, the DC50 was less than 10 nM and the Dmax was 30 to 70%. On BRM, the DC50 is less than 10 nM and the “BRM IF Degradation Sinf (%)” value is “E (E indicates −30%-−70%)”.

Take `Nc1nnc(-c2ccccc2O)cc1N1CC2CCC(C1)N2c1ccnc(C#CCN2CC3CC(C2)C3O)c1` (centres unmarked) [Compound 126, 3-[3-[4-[3-[3-amino-6-(2-hydroxyphenyl)pyridazin-4-yl]-3,8-diazabicyclo[3.2.1]octan-8-yl]-2-pyridyl]prop-2-ynyl]-3-azabicyclo[3.1.1]heptan-6-ol]: on BRG1, the DC50 is less than 10 nM and the Dmax was 0 to 30%. At BRM, the DC50 was less than 10 nM and the “BRM IF Degradation Sinf (%)” value is listed as “E (E indicates −30%-−70%)”.

As for `Nc1nnc(-c2ccccc2O)cc1N1CC2CCC(C1)N2c1ccnc(C#CCN2CCC3(CCCC3)C2)c1` [Compound 127, 2-[6-amino-5-[8-[2-[3-(2-azaspiro[4.4]nonan-2-yl)prop-1-ynyl]-4-pyridyl]-3,8-diazabicyclo[3.2.1]octan-3-yl]pyridazin-3-yl]phenol], at BRG1, the DC50 was less than 10 nM and the Dmax lay in the range of 30 to 70%. On BRM, the DC50 was less than 10 nM and the “BRM IF Degradation Sinf (%)” value is listed as “E (E indicates −30%-−70%)”.
